Laboratory results reported in paper PMC12507699, “SLC45A4 is a pain gene encoding a neuronal polyamine transporter” (Nature, 2025).

Tests used:
SLC45A4 [1] = molecular target: T1, SLC45A4 (Homo sapiens, UniProt Q5BKX6); experiment: competition of […]-SPD uptake in Neuro-2A cells overexpressing SLC45A4; also nanoDSF on purified protein; format: cell-based; set-up: full-length human SLC45A4
T1 sequence (Q5BKX6 1-768): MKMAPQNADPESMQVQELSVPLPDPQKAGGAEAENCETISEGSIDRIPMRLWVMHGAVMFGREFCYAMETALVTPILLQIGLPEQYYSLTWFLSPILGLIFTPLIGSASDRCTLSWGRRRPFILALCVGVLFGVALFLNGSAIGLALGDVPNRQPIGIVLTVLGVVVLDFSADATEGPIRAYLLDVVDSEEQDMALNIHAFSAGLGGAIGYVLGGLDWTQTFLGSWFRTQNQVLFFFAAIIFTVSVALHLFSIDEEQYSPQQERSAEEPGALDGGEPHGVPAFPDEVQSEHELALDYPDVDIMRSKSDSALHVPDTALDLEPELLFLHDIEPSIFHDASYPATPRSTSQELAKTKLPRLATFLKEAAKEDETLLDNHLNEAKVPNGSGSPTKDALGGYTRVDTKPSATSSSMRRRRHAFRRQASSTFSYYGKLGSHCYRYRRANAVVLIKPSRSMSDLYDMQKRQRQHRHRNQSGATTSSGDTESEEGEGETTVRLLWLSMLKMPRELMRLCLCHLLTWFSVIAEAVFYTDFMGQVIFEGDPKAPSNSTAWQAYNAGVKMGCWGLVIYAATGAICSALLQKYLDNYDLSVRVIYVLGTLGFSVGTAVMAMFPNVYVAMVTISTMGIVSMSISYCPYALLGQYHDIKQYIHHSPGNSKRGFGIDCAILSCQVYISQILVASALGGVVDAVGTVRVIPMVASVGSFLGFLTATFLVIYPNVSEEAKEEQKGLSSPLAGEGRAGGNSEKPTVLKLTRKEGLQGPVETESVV

SLC45A4 [2] = molecular target: T1, SLC45A4; experiment: […]-SPD uptake and homologous competition in Neuro-2A cells overexpressing SLC45A4; also nanoDSF destabilization of purified protein in detergent and nanodiscs; format: cell-based; set-up: full-length human SLC45A4
SLC45A4 [3] = molecular target: T1, SLC45A4; experiment: cell-based

Which IC50 (SLC45A4 [1]) does the source give for `NCCCCCN` [Cad, cadaverine] here?
The IC50 was 67 µM.

Which IC50 (SLC45A4 [1]) does the source give for `NCCCCN` [Put, putrescine] here?
The IC50 was 74 µM.

How did the IC50 (SLC45A4 [2]) turn out when `NCCCCNCCCN` [SPD, spermidine] was run?
The IC50 was 123 µM.

For `NCCCNCCCCNCCCN` [Spm, spermine], which IC50 (SLC45A4 [3]) is on record?
Its IC50 is 240 µM.
